Measured values reported in patent US20250275977A1, “DOSAGE REGIMENS FOR TREATMENT WITH DEUTERATED JAK INHIBITORS” (SUN PHARMACEUTICAL INDUSTRIES, INC., priority 2022, published 2025).

Columns and labels:
Format in all cases: in vivo, human
[1] = test system: adult patients with moderate-to-severe alopecia areata; experiment: Phase 2a double-blind, randomized, placebo-controlled trial, efficacy by severity of alopecia tool (SALT); settings: for patients who achieved a ≥50% reduction in their overall SALT score: week 24, relative to baseline; for difference from placebo on all SALT measures / patients who achieved a ≥75% reduction in their overall SALT score / patients who achieved a ≥90% reduction in their overall SALT score: week 24; for significant changes in SALT score compared to placebo observed starting at: p<0.05
Description: The efficacy of treatment of hair loss disorders such as alopecia areata can be measured in a variety of ways, some of which are known in the art. For example, the “severity of alopecia tool”, otherwise known as SALT, is a validated assessment scale—developed by the National Alopecia Areata Foundation working committee—to evaluate the degree of hair loss. See, e.g., Olsen E A, Hordinsky M K, Price V H, et al. Alopecia areata investigational assessment guidelines—Part II. J Am Acad Dermatol 2004: 51: 440-447 (incorporated herein by reference). The SALT score is calculated for a patient by measuring the percentage of hair loss in each of the 4 areas of the scalp and adding the total to achieve a composite score. Hair regrowth is reflected by a decrease in the SALT score. For example, no hair on the scalp would have a SALT score of 100 while complete hair regrowth would be a SALT score of 0. In certain embodiments, methods of treatment as described herein can provide a SALT score improvement of at least 10 points after treatment (for example, from a SALT score of 100 prior to treatment to a SALT score of 90 after treatment). In further embodiments, methods of treatment as described herein can provide a SALT score improvement of at least 20 points, 30 points, 40 points, 50 points, 60 points, 70 points, 80 points, 90 points, or 100 points. In certain embodiments, methods of treatment as described herein can provide after treatment at least a 20% improvement from baseline in the patient's SALT score, or at least a 30% improvement from baseline in the patient's SALT score, or at least a 40% improvement from baseline in the patient's SALT score, or at least a 50% improvement from baseline in the patient's SALT score, or at least a 60% improvement from baseline in the patient's SALT score, or at least a 70% improvement from baseline in the patient's SALT score, or at least a 75% improvement from baseline in the patient's SALT score or at least a 80% improvement from baseline in the patient's SALT score, or at least a 90% improvement from baseline in the patient's SALT score.
(§1) A Phase 2a trial was conducted to evaluate the safety and efficacy of Compound (I) (CTP-543) in subjects with alopecia, with the primary efficacy analysis at week 24. The Phase 2a trial was a double-blind, randomized, placebo-controlled trial to evaluate the safety and efficacy of Compound (I) in adult patients with moderate-to-severe alopecia areata. Patients were sequentially randomized to receive one of three doses of Compound I as the phosphate salt (e.g., 10.5 mg of Compound (I) phosphate salt is equivalent 8 mg of Compound (I) free base). The doses of Compound (I) were 4, 8 (i.e., about 10.5 mg of Compound (I) phosphate salt), and 12 mg twice daily, and there was also a patient group receiving placebo. The primary outcome measure utilized the severity of alopecia tool (SALT) after 24 weeks of dosing.
Interim top line analysis for the 4 mg, 8 mg, and 12 mg cohorts is discussed below. The primary endpoint for the study was a 50% relative reduction in SALT between Week 24 and baseline.

[2] = test system: subjects with alopecia areata; experiment: Open-label extension study (OLE), SALT score after dose reduction
Description: In an ongoing open-label extension study, subjects who were previously enrolled in a qualifying clinical study (including the study described in Example 1) and received either a total daily dose of 16 mg of Compound (I) (CTP-543, phosphate salt), a total daily dose of 24 mg of CTP-543, or placebo, and completed through the 24-week treatment period, were eligible to enroll in an open-label extension study (OLE) and continue to receive treatment with CTP-543 phosphate. A total of 152 subjects were enrolled in the OLE. In the OLE, subjects received daily treatment with CTP-543 at a dose of 8 mg BID or 12 mg BID (see FIG. 8). Dose adjustments were allowed at the investigator's discretion. One subject enrolled in the OLE, who received a daily dose of 24 mg QD of CTP-543 for approximately 9 months (i.e., the 24-week study period and the initial 3 months of the OLE), experienced hair growth at that dose (SALT score of zero, i.e., full regrowth of hair prior to dose reduction). The subject then had their dose reduced to a daily dose of 8 mg BID of CTP-543 phosphate. After approximately 7 months in the OLE receiving the lower daily dose of 8 mg BID of CTP-543, the subject continued to substantially maintain hair regrowth, with a SALT score of 7.92.

[3] = test system: adult patients with moderate-to-severe alopecia areata; experiment: Phase 2a trial, safety: treatment emergent adverse events by patient
Description: as §1

SMILES: [2H]C1([2H])C([C@@H](CC#N)n2cc(-c3ncnc4[nH]ccc34)cn2)C([2H])([2H])C([2H])([2H])C1([2H])[2H] [CTP-543, (R)-3-(4-(7H-pyrrolo[2,3-d]pyrimidin-4-yl)-1H-pyrazol-1-yl)-3-(cyclopentyl-2,2,3,3,4,4,5,5-d8)propanenitrile]
- separation from placebo on all measures ([1]; 4 mg BID): failed to separate from placebo on all measures
- patients who achieved a ≥50% reduction in their overall SALT score ([1]; 4 mg BID): 21%
- difference from placebo on all SALT measures ([1]; 8 mg BID): significantly different from placebo
- patients who achieved a ≥75% reduction in their overall SALT score ([1]; 8 mg BID): 29%
- patients who achieved a ≥90% reduction in their overall SALT score ([1]; 8 mg BID): 16%
- patients who achieved a ≥50% reduction in their overall SALT score ([1]; 8 mg BID): 47%
- significant changes in SALT score compared to placebo observed starting at ([1]; 8 mg cohort): 12 weeks
- 12 mg BID dose compared to the 8 mg BID dose ([1]; 12 mg BID vs 8 mg BID): numerically superior and generally produced faster onset and greater effect
- difference from placebo on all SALT measures ([1]; 12 mg BID): significantly different from placebo
- patients who achieved a ≥75% reduction in their overall SALT score ([1]; 12 mg BID): 42%
- patients who achieved a ≥90% reduction in their overall SALT score ([1]; 12 mg BID): 36%
- patients who achieved a ≥50% reduction in their overall SALT score ([1]; 12 mg BID): 58%
- significant changes in SALT score compared to placebo observed starting at ([1]; 12 mg cohort): 12 weeks
- SALT score ([2]; one subject, 24 mg QD for approximately 9 months, prior to dose reduction): zero
- SALT score ([2]; same subject, after approximately 7 months at the reduced dose of 8 mg BID): 7.92
- Acne, patients with event ([3]; 4 mg twice daily): 4
- Acne, percent of patients ([3]; 4 mg twice daily): (13.8%)
- Blood creatine phosphokinase increased, patients with event ([3]; 4 mg twice daily): 3
- Blood creatine phosphokinase increased, percent of patients ([3]; 4 mg twice daily): (10.3%)
- Cough, patients with event ([3]; 4 mg twice daily): 4
- Cough, percent of patients ([3]; 4 mg twice daily): (13.8%)
- Diarrhoea, patients with event ([3]; 4 mg twice daily): 3
- Diarrhoea, percent of patients ([3]; 4 mg twice daily): (10.3%)
- Folliculitis, patients with event ([3]; 4 mg twice daily): 3
- Folliculitis, percent of patients ([3]; 4 mg twice daily): (10.3%)
- Headache, patients with event ([3]; 4 mg twice daily): 5
- Headache, percent of patients ([3]; 4 mg twice daily): (17.2%)
- LDL increase, patients with event ([3]; 4 mg twice daily): 0
- Nasopharyngitis, patients with event ([3]; 4 mg twice daily): 3
- Nasopharyngitis, percent of patients ([3]; 4 mg twice daily): (10.3%)
- Nausea, patients with event ([3]; 4 mg twice daily): 4
- Nausea, percent of patients ([3]; 4 mg twice daily): (13.8%)
- Oroharyngeal pain, patients with event ([3]; 4 mg twice daily): 3
- Oroharyngeal pain, percent of patients ([3]; 4 mg twice daily): (10.3%)
- Upper respiratory tract infection, patients with event ([3]; 4 mg twice daily): 2
- Upper respiratory tract infection, percent of patients ([3]; 4 mg twice daily): (6.9%)
- Acne, patients with event ([3]; 8 mg twice daily): 4
- Acne, percent of patients ([3]; 8 mg twice daily): (10.5%)
- Blood creatine phosphokinase increased, patients with event ([3]; 8 mg twice daily): 2
- Blood creatine phosphokinase increased, percent of patients ([3]; 8 mg twice daily): (5.3%)
- Cough, patients with event ([3]; 8 mg twice daily): 1
- Cough, percent of patients ([3]; 8 mg twice daily): (2.6%)
- Diarrhoea, patients with event ([3]; 8 mg twice daily): 1
- Diarrhoea, percent of patients ([3]; 8 mg twice daily): (2.6%)
- Folliculitis, patients with event ([3]; 8 mg twice daily): 2
- Folliculitis, percent of patients ([3]; 8 mg twice daily): (5.3%)
- Headache, patients with event ([3]; 8 mg twice daily): 10
- Headache, percent of patients ([3]; 8 mg twice daily): (26.3%)
- LDL increase, patients with event ([3]; 8 mg twice daily): 4
- LDL increase, percent of patients ([3]; 8 mg twice daily): (10.5%)
- Nasopharyngitis, patients with event ([3]; 8 mg twice daily): 3
- Nasopharyngitis, percent of patients ([3]; 8 mg twice daily): (7.9%)
- Nausea, patients with event ([3]; 8 mg twice daily): 4
- Nausea, percent of patients ([3]; 8 mg twice daily): (10.5%)
- Oroharyngeal pain, patients with event ([3]; 8 mg twice daily): 2
- Oroharyngeal pain, percent of patients ([3]; 8 mg twice daily): (5.3%)
- Upper respiratory tract infection, patients with event ([3]; 8 mg twice daily): 2
- Upper respiratory tract infection, percent of patients ([3]; 8 mg twice daily): (5.3%)
- Acne, patients with event ([3]; 12 mg twice daily): 6
- Acne, percent of patients ([3]; 12 mg twice daily): (16.7%)
- Blood creatine phosphokinase increased, patients with event ([3]; 12 mg twice daily): 1
- Blood creatine phosphokinase increased, percent of patients ([3]; 12 mg twice daily): (2.8%)
- Cough, patients with event ([3]; 12 mg twice daily): 2
- Cough, percent of patients ([3]; 12 mg twice daily): (5.6%)
- Diarrhoea, patients with event ([3]; 12 mg twice daily): 0
- Folliculitis, patients with event ([3]; 12 mg twice daily): 1
- Folliculitis, percent of patients ([3]; 12 mg twice daily): (2.8%)
- Headache, patients with event ([3]; 12 mg twice daily): 7
- Headache, percent of patients ([3]; 12 mg twice daily): (19.4%)
- LDL increase, patients with event ([3]; 12 mg twice daily): 0
- Nasopharyngitis, patients with event ([3]; 12 mg twice daily): 9
- Nasopharyngitis, percent of patients ([3]; 12 mg twice daily): (25.0%)
- Nausea, patients with event ([3]; 12 mg twice daily): 1
- Nausea, percent of patients ([3]; 12 mg twice daily): (2.8%)
- Oroharyngeal pain, patients with event ([3]; 12 mg twice daily): 1
- Oroharyngeal pain, percent of patients ([3]; 12 mg twice daily): (2.8%)
- Upper respiratory tract infection, patients with event ([3]; 12 mg twice daily): 7
- Upper respiratory tract infection, percent of patients ([3]; 12 mg twice daily): (19.4%)
- serious adverse events ([3]; 4, 8 and 12 mg BID, 24 weeks): no serious adverse events
- tolerability of treatment ([3]; 4, 8 and 12 mg BID, 24 weeks): generally well-tolerated
- Grade 3/4 hematology events ([3]; preliminary analysis, total, distributed equally across the placebo, 4 mg and 8 mg groups): 3
